# Reference: patent US20220402925A1, “COMPOUNDS AND METHODS FOR THE TREATMENT OF CYSTIC FIBROSIS” (Flatley Discovery Lab, LLC, priority 2019, published 2022)
# Biological target: T1, F508del CFTR (Homo sapiens, UniProt P13569, DEL508-508)
# T1 construct: Primary CF airway epithelial cells were obtained from the UNC Cystic Fibrosis Tissue Procurement and Cell Culture Core; host or cells: primary CF airway epithelial cells
# Experiment: Equivalent current assay in primary CF airway epithelial cells (Corrector Activity, NAUC normalized to 3 μM VX809)
# Assay type: cell-based
# Details: NAUC as % of positive control (VX-809)
# How it was run: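 Differentiated primary CF airway cells treated basolaterally 24 h at 37° C with compound (0.1% DMSO). Equivalent current recorded after 5 μM benzamil, stimulation with 10 μM forskolin plus 1 μM VX-770 or 3 μM FDL176, and block by 20 μM CFTR-172; vehicle-subtracted AUC normalized to 3 μM VX809; EC50 from sigmoid fit, Hill slope 1.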
# T1 sequence (P13569 with tags, fused parts or gaps DEL508-508): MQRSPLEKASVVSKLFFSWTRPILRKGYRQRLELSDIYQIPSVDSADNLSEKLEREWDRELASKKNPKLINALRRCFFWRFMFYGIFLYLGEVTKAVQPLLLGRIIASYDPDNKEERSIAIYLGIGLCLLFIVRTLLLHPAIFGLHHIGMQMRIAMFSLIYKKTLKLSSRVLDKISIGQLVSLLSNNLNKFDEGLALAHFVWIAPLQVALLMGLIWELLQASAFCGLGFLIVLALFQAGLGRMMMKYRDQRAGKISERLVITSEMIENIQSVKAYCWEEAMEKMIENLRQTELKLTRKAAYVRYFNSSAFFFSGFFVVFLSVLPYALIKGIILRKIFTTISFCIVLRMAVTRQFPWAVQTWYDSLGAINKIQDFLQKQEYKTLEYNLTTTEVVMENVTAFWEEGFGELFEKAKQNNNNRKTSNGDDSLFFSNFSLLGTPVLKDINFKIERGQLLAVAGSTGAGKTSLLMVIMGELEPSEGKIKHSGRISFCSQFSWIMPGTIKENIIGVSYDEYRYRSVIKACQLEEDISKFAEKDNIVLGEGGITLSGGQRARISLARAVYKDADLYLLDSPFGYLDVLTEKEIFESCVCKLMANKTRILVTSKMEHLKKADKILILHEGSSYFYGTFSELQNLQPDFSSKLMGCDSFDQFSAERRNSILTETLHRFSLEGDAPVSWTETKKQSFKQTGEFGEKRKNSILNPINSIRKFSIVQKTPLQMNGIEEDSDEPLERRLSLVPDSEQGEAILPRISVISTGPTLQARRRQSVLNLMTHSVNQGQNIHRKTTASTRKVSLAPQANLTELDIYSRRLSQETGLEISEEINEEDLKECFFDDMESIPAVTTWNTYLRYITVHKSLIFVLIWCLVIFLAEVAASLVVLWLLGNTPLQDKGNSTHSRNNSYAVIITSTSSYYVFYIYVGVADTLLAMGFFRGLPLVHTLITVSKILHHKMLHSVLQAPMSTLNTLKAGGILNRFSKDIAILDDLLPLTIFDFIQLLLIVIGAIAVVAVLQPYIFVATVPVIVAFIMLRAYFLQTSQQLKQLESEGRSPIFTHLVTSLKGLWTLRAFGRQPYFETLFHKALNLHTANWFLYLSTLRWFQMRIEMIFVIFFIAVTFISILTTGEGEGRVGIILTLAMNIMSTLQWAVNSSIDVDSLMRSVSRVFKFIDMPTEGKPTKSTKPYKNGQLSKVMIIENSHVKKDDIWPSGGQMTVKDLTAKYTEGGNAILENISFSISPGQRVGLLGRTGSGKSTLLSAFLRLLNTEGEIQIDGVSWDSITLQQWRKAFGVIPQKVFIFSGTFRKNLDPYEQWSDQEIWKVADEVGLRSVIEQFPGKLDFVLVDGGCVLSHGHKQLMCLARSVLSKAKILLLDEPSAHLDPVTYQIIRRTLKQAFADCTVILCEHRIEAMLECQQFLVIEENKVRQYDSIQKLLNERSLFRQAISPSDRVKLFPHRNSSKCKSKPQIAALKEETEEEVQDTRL
row,SMILES,Corr Activity (NAUC)
1,Cc1nc2ccc(N(C)C(=O)Cn3nc(-c4cccc(OC(F)(F)F)c4)c4occc4c3=O)cc2o1 [Example 93],+ (NAUC<40% of positive control)
2,CCN(C(=O)Cn1nc(-c2cc(C)cc(C#N)c2)c2oc(C(=O)NC(C)(C)C(F)(F)F)cc2c1=O)c1ccc2c(c1)OC(F)(F)O2 [Example 150],+++ (NAUC>70% of positive control)
3,CCN(C(=O)Cn1nc(-c2cccc(C#N)c2)c2oc(CN3CCCCC3)cc2c1=O)c1ccc2c(c1)OC(F)(F)O2 [Example 201],+++ (NAUC>70% of positive control)
4,CCN(C(=O)Cn1nc(-c2cc(F)cc(C#N)c2)c2oc(C3CC3)cc2c1=O)c1ccc2c(c1)OC(F)(F)O2 [Example 225],+++ (NAUC>70% of positive control)
5,CCN(C(=O)Cn1nc(-c2cc(C#N)cc(OC)c2)c2oc(C3CC3)cc2c1=O)c1ccc2c(c1)OC(F)(F)O2 [Example 226],+++ (NAUC>70% of positive control)
6,CCN(C(=O)Cn1nc(-c2cc(C#N)cc(C(C)(C)C)c2)c2oc(C(F)F)cc2c1=O)c1ccc2c(c1)OC(F)(F)O2 [Example 188],+++ (NAUC>70% of positive control)
7,Cc1nc2ccc(N(C)C(=O)Cn3nc(-c4cccc(C#N)c4)c4oc5ccccc5c4c3=O)cc2o1 [Example 158],+++ (NAUC>70% of positive control)
8,Cc1cc2c(cc1N(C)C(=O)Cn1nc(-c3cc(Cl)cc(C#N)c3)c3oc(C(=O)NC(C)(C)C)cc3c1=O)OC(F)(F)O2 [Example 138],+++ (NAUC>70% of positive control)
9,CCN(C(=O)Cn1nc(-c2cc(F)cc(C#N)c2)c2oc(C(F)F)cc2c1=O)c1ccc2c(c1)OC(F)(F)O2 [Example 191],+++ (NAUC>70% of positive control)
10,CCN(C(=O)Cn1nc(-c2cccc(C#N)c2)c2oc(C(=O)N(C)C(C)(C)C)cc2c1=O)c1ccc2c(c1)OC(F)(F)O2 [Example 208],+++ (NAUC>70% of positive control)
11,CCN(C(=O)Cn1nc(-c2cccc(OC(C)(C)C)c2)c2occc2c1=O)c1ccc2c(c1)OC(F)(F)O2 [Example 89],++ (NAUC 70-40% of positive control)
12,CCN(C(=O)Cn1nc(-c2cc(Cl)cc(Cl)c2)c2oc(C)cc2c1=O)c1ccc2c(c1)OC(F)(F)O2 [Example 73],+++ (NAUC>70% of positive control)
13,CCN(C(=O)Cn1nc(-c2cc(C#N)cc(OCCO)c2)c2occc2c1=O)c1ccc2c(c1)OC(F)(F)O2 [Example 214],++ (NAUC 70-40% of positive control)
14,N#Cc1cc(Cl)cc(-c2nn(CC(=O)N3CCCc4c3ccc3c4OC(F)(F)O3)c(=O)c3ccoc23)c1 [Example 103],++ (NAUC 70-40% of positive control)
15,CN(C(=O)Cn1nc(-c2cccc(OC(F)(F)F)c2)c2occc2c1=O)c1ccc2c(c1)OC(F)(F)O2 [Example 90],++ (NAUC 70-40% of positive control)
16,CN(C(=O)Cn1nc(-c2cccc(C(C)(C)C)c2)c2occc2c1=O)c1ccc2c(c1)OC(F)(F)O2 [Example 87],+ (NAUC<40% of positive control)
17,CCN(C(=O)Cn1nc(-c2cccc(C#N)c2)c2oc(C(F)F)cc2c1=O)c1ccc2c(c1)OC(F)(F)O2 [Example 187],+++ (NAUC>70% of positive control)
18,CCN(C(=O)Cn1nc(-c2cccc(C#N)c2)c2oc(CN3CCOCC3)cc2c1=O)c1ccc2c(c1)OC(F)(F)O2 [Example 202],+++ (NAUC>70% of positive control)
19,CCN(C(=O)Cn1nc(-c2cc(C)cc(F)c2)c2occc2c1=O)c1ccc2c(c1)OC(F)(F)O2 [Example 83],+++ (NAUC>70% of positive control)
20,Cc1cc2c(=O)n(CC(=O)N(C)c3ccc4c(c3)OC(F)(F)O4)nc(-c3cc(Cl)cc(C#N)c3)c2o1 [Example 72],+++ (NAUC>70% of positive control)
21,CCN(C(=O)Cn1nc(-c2cccc(C#N)c2)c2oc(C(=O)NC(C)(C)C)cc2c1=O)c1ccc2c(c1F)OC(F)(F)O2 [Example 147],+++ (NAUC>70% of positive control)
22,Cc1cc2c(=O)n(CC(=O)N(C)c3ccc4c(c3)OC(F)(F)O4)nc(-c3cc(F)cc(F)c3)c2o1 [Example 71],+++ (NAUC>70% of positive control)
23,N#Cc1cc(F)cc(-c2nn(CC(=O)N3CCCc4c3ccc3c4OC(F)(F)O3)c(=O)c3ccoc23)c1 [Example 104],+++ (NAUC>70% of positive control)
24,Cc1nc2ccc(N(C)C(=O)Cn3nc(-c4cccc(C(C)(C)C)c4)c4occc4c3=O)cc2o1 [Example 92],+ (NAUC<40% of positive control)
25,"CN(C(=O)Cn1nc(-c2cccc(Cl)c2)c2oc(C(=O)NC(C)(C)C)cc2c1=O)c1ccc2c(c1)OC(F)(F)O2 [Example 205, N-(tert-butyl)-7-(3-chlorophenyl)-5-(2-((2,2-difluorobenzo[d][1,3]dioxol-5-yl)(methyl)amino)-2-oxoethyl)-4-oxo-4,5-dihydrofuro[2,3-d]pyridazine-2-carboxamide]",+++ (NAUC>70% of positive control)
26,CCN(C(=O)Cn1nc(-c2cc(F)cc(C#N)c2)c2occc2c1=O)c1ccc2c(c1C)OC(F)(F)O2 [Example 173],+++ (NAUC>70% of positive control)
27,CCN(C(=O)Cn1nc(-c2cc(C)cc(C#N)c2)c2occc2c1=O)c1cc2c(cc1C)OC(F)(F)O2 [Example 164],+++ (NAUC>70% of positive control)
28,CCN(C(=O)Cn1nc(-c2cccc(C#N)c2)c2oc(C(=O)N3CCCC34CC4)cc2c1=O)c1ccc2c(c1)OC(F)(F)O2 [Example 207],+++ (NAUC>70% of positive control)

# The next lines start with the values.
row,Corr Activity (NAUC),SMILES
1,++ (NAUC 70-40% of positive control),CCN(C(=O)Cn1nc(-c2ccc(C(=O)OC)c(Cl)c2)c2[nH]cnc2c1=O)c1ccc2c(c1)OC(F)(F)O2 [Example 316]
2,+++ (NAUC>70% of positive control),CCN(C(=O)Cn1nc(-c2ccc(OC(F)(F)F)c(C#N)c2)c2[nH]cnc2c1=O)c1ccc2c(c1)OC(F)(F)O2 [Example 365]
3,++ (NAUC 70-40% of positive control),CCN(C(=O)Cn1nc(-c2ccc(OC)c(C(F)(F)F)c2)c2[nH]cnc2c1=O)c1ccc2c(c1)OC(F)(F)O2 [Example 338]
4,+ (NAUC<40% of positive control),O=C1Cc2ccc(-c3nn(CC(=O)N(c4ccc5c(c4)OC(F)(F)O5)C4CC4)c(=O)c4nc[nH]c34)cc2N1 [Example 426]
5,+++ (NAUC>70% of positive control),CCN(C(=O)Cn1nc(-c2cc(C#N)cc(OC(F)(F)F)c2)c2[nH]cnc2c1=O)c1ccc2c(c1)OC(F)(F)O2 [Example 285]
6,++ (NAUC 70-40% of positive control),N#Cc1cccc(-c2nn(CC(=O)N(c3ccc4c(c3)OC(F)(F)O4)C3CC3)c(=O)c3ccoc23)c1 [Example 40]
7,+ (NAUC<40% of positive control),CCN(C(=O)Cn1nc(-c2cc(Cl)cc(CO)c2)c2[nH]cnc2c1=O)c1ccc2c(c1)OC(F)(F)O2 [Example 282]
8,+ (NAUC<40% of positive control),O=C(Cn1nc(-c2ccc3c(c2)ncn3-c2ccccc2)c2[nH]cnc2c1=O)N(c1ccc2c(c1)OC(F)(F)O2)C1CC1 [Example 433]
9,+++ (NAUC>70% of positive control),CCN(C(=O)Cn1nc(-c2cccc(F)c2)c2oc(C3CC3)cc2c1=O)c1ccc2c(c1)OC(F)(F)O2 [Example 229]
10,+ (NAUC<40% of positive control),CCN(C(=O)Cn1nc(-c2ccc(C#N)c(C(F)(F)F)c2)c2[nH]cnc2c1=O)c1ccc2c(c1)OC(F)(F)O2 [Example 351]
11,+++ (NAUC>70% of positive control),CCN(C(=O)Cn1nc(-c2cc(Cl)cc(OC)c2)c2[nH]cnc2c1=O)c1ccc2c(c1)OC(F)(F)O2 [Example 257]
12,+++ (NAUC>70% of positive control),O=C(Cn1nc(-c2cccc(Cl)c2)c2[nH]cnc2c1=O)N1CCCc2c1ccc1c2OC(F)(F)O1 [Example 374]
13,+++ (NAUC>70% of positive control),CCN(C(=O)Cn1nc(-c2cc(C)cc(Cl)c2)c2[nH]cnc2c1=O)c1ccc2c(c1)OC(F)(F)O2 [Example 269]
14,+++ (NAUC>70% of positive control),CCN(C(=O)Cn1nc(-c2cc(F)cc(F)c2)c2[nH]cnc2c1=O)c1ccc2c(c1)OC(F)(F)O2 [Example 258]
15,++ (NAUC 70-40% of positive control),O=C(Cn1nc(-c2cc(F)cc(C(F)(F)F)c2)c2[nH]cnc2c1=O)N(c1ccc2c(c1)OC(F)(F)O2)C1CC1 [Example 391]
16,+ (NAUC<40% of positive control),CCN(C(=O)Cn1nc(-c2ccc(S(=O)(=O)NC(C)(C)C)c(C)c2)c2[nH]cnc2c1=O)c1ccc2c(c1)OC(F)(F)O2 [Example 355]
17,+ (NAUC<40% of positive control),CN(C(=O)Cn1nc(-c2cccc(Cl)c2)c2cn[nH]c2c1=O)c1ccc2c(c1)OC(F)(F)O2 [Example 498]
18,+++ (NAUC>70% of positive control),N#Cc1cc(-c2nn(CC(=O)N(c3ccc4c(c3)OC(F)(F)O4)C3CC3)c(=O)c3nc[nH]c23)ccc1Cl [Example 445]
19,+ (NAUC<40% of positive control),Cn1c2ccccc2c2cc(-c3nn(CC(=O)N(c4ccc5c(c4)OC(F)(F)O5)C4CC4)c(=O)c4nc[nH]c34)ccc21 [Example 425]
20,+ (NAUC<40% of positive control),CN(C(=O)Cn1nc(-c2cccc(F)c2)c2cn[nH]c2c1=O)c1ccc2c(c1)OC(F)(F)O2 [Example 497]
21,+ (NAUC<40% of positive control),CC(C)n1ncc2cc(-c3nn(CC(=O)N(c4ccc5c(c4)OC(F)(F)O5)C4CC4)c(=O)c4nc[nH]c34)ccc21 [Example 430]
22,+++ (NAUC>70% of positive control),CCN(C(=O)Cn1nc(-c2cccc(Cl)c2)c2[nH]ccc2c1=O)c1ccc2c(c1)OC(F)(F)O2 [Example 502]
23,++ (NAUC 70-40% of positive control),CCN(C(=O)Cn1nc(-c2cc(F)cc(CC#N)c2)c2[nH]cnc2c1=O)c1ccc2c(c1)OC(F)(F)O2 [Example 252]
